Columns and labels:
HeLa [1] = experiment: Compound was tested for antitumor activity against the human uterine cancer cell (HeLa) line at concentration of […] x 10 e-4 M; format: functional
HeLa [2] = experiment: Compound was tested for antitumor activity against the human uterine cancer cell (HeLa) line at concentration of […] x 10 e-5 M; format: functional
HeLa [3] = experiment: Compound was tested for antitumor activity against the human uterine cancer cell (HeLa) line at concentration of 1 x 10 e-7 M; format: functional
HeLa [4] = experiment: Compound was tested for antitumor activity against the human uterine cancer cell (HeLa) line at concentration of 1 x 10 e-6 M; format: functional
[5] = Ratio of C50(GC) to that of C50(AT)
Nucleic Acid [6] = experiment: Compound was evaluated for DNA-binding affinity using poly[d(AT)]2; format: nucleic-acid assay
Nucleic Acid [7] = experiment: Compound was evaluated for DNA-binding affinity using poly[d(GC)]2; format: nucleic-acid assay
Nucleic Acid [8] = experiment: Compound was evaluated for DNA-binding affinity using calf-thymus DNA; format: nucleic-acid assay; conditions: Bos taurus

Row | SMILES | Cell survival (HeLa [1]) [%] | Cell survival (HeLa [2]) [%] | Cell survival (HeLa [3]) [%] | Cell survival (HeLa [4]) [%] | Ratio [5] | C50 (Nucleic Acid [6]) [µM] | C50 (Nucleic Acid [7]) [µM] | C50 (Nucleic Acid [8]) [µM]
1 | Cl.Cl.NCCNCc1ccc2nc(-c3ccccc3)ccc2c1 | 0 | 44 | 85 | 82 | – | – | – | –
2 | Cl.Cl.Cl.NCCNCc1ccc2ccc(-c3ccccc3)nc2c1 | 3 | 31 | 98 | 70 | 1.5 | 11 | 16 | 11
3 | Cl.Cl.Cl.NCCNCc1ccc(-c2ccc3ccccc3n2)cc1 | 3 | 65 | 79 | 87 | 1.6 | 7 | 11 | 7
4 | Cl.Cl.Cl.NCCNCc1cccc2ccc(-c3ccccc3)nc12 | 0 | 7 | 77 | 65 | 1.1 | 5.2 | 5.6 | 2.1
5 | Cl.Cl.Cl.NCCNCc1c2ccccc2nc2ccccc12 | 3 | 71 | 100 | 94 | – | – | – | –
6 | Cl.Cl.Cl.NCCNCc1cc(-c2ccccc2)nc2ccccc12 | 8 | 52 | 74 | 62 | 1.5 | 33 | 48 | 30
